Data published in ChEMBL document CHEMBL4507300 (2021).

How the values were obtained:
[1] = biological target: Serine/threonine-protein kinase VRK2 (Homo sapiens) (UniProt Q86Y07); conditions: Compound concentration 1000.0 nM
[2] = biological target: Receptor-interacting serine/threonine-protein kinase 2 (Homo sapiens) (UniProt O43353); conditions: Compound concentration 1000.0 nM
[3] = biological target: Ribosomal protein S6 kinase alpha-3 (Homo sapiens) (UniProt P51812); conditions: Compound concentration 1000.0 nM
[4] = biological target: Serine/threonine-protein kinase 25 (Homo sapiens) (UniProt O00506); conditions: Compound concentration 1000.0 nM
[5] = biological target: Serine/threonine-protein kinase 26 (Homo sapiens) (UniProt Q9P289); conditions: Compound concentration 1000.0 nM
[6] = biological target: Rho-associated protein kinase 2 (Homo sapiens) (UniProt O75116); conditions: Compound concentration 1000.0 nM
[7] = tested on: Tyrosine-protein kinase ABL1 (Homo sapiens), P00519 [H396P]; conditions: Compound concentration 1000.0 nM
[8] = biological target: Activin receptor type-1-like (Homo sapiens) (UniProt P37023); conditions: Compound concentration 1000.0 nM
[9] = biological target: Serine/threonine-protein kinase ULK1 (Homo sapiens) (UniProt O75385); conditions: Compound concentration 1000.0 nM
[10] = tested on: Tyrosine-protein kinase ABL1 (Homo sapiens), P00519 [F317L]; conditions: Compound concentration 1000.0 nM
[11] = biological target: Serine/threonine-protein kinase MARK2 (Homo sapiens) (UniProt Q7KZI7); conditions: Compound concentration 1000.0 nM
[12] = biological target: Myosin light chain kinase family member 4 (Homo sapiens) (UniProt Q86YV6); conditions: Compound concentration 1000.0 nM
[13] = biological target: Membrane-associated tyrosine- and threonine-specific cdc2-inhibitory kinase (Homo sapiens) (UniProt Q99640); conditions: Compound concentration 1000.0 nM
[14] = biological target: Serine/threonine-protein kinase PLK2 (Homo sapiens) (UniProt Q9NYY3); conditions: Compound concentration 1000.0 nM
[15] = biological target: Serine/threonine-protein kinase Sgk3 (Homo sapiens) (UniProt Q96BR1); conditions: Compound concentration 1000.0 nM
[16] = biological target: BMP-2-inducible protein kinase (Homo sapiens) (UniProt Q9NSY1); conditions: Compound concentration 1000.0 nM
[17] = biological target: 5-hydroxytryptamine receptor 1E (Homo sapiens) (UniProt P28566); conditions: Compound concentration 10.0 uM
[18] = biological target: Mitogen-activated protein kinase 3 (Homo sapiens) (UniProt P27361); conditions: Compound concentration 1000.0 nM
[19] = biological target: Beta-adrenergic receptor kinase 1 (Homo sapiens) (UniProt P25098); conditions: Compound concentration 1000.0 nM
[20] = biological target: Death-associated protein kinase 1 (Homo sapiens) (UniProt P53355); conditions: Compound concentration 1000.0 nM
[21] = biological target: NUAK family SNF1-like kinase 1 (Homo sapiens) (UniProt O60285); conditions: Compound concentration 1000.0 nM
[22] = tested on: Hepatocyte growth factor receptor (Homo sapiens), P08581 [M1250T]; conditions: Compound concentration 1000.0 nM
[23] = biological target: Cyclin-dependent kinase 2 homolog (Plasmodium falciparum (isolate 3D7)) (UniProt P61075); conditions: Compound concentration 1000.0 nM
[24] = biological target: Ribosomal protein S6 kinase alpha-4 (Homo sapiens) (UniProt O75676); conditions: Compound concentration 1000.0 nM
[25] = biological target: Serine/threonine-protein kinase WNK2 (Homo sapiens) (UniProt Q9Y3S1); conditions: Compound concentration 1000.0 nM
[26] = biological target: TGF-beta receptor type-2 (Homo sapiens) (UniProt P37173); conditions: Compound concentration 1000.0 nM
[27] = biological target: cGMP-dependent protein kinase 2 (Homo sapiens) (UniProt Q13237); conditions: Compound concentration 1000.0 nM
[28] = tested on: Epidermal growth factor receptor (Homo sapiens), P00533 [L858R]; conditions: Compound concentration 1000.0 nM
[29] = biological target: Casein kinase II subunit alpha' (Homo sapiens) (UniProt P19784); conditions: Compound concentration 1000.0 nM
[30] = biological target: Angiopoietin-1 receptor (Homo sapiens) (UniProt Q02763); conditions: Compound concentration 1000.0 nM
[31] = biological target: Ephrin type-A receptor 5 (Homo sapiens) (UniProt P54756); conditions: Compound concentration 1000.0 nM
[32] = biological target: Phosphorylase b kinase gamma catalytic chain, skeletal muscle/heart isoform (Homo sapiens) (UniProt Q16816); conditions: Compound concentration 1000.0 nM
[33] = biological target: Casein kinase II subunit alpha (Homo sapiens) (UniProt P68400); conditions: Compound concentration 1000.0 nM
[34] = tested on: Serine/threonine-protein kinase B-raf (Homo sapiens), P15056 [V600E]; conditions: Compound concentration 1000.0 nM
[35] = tested on: Proto-oncogene tyrosine-protein kinase receptor Ret (Homo sapiens), P07949 [V804L]; conditions: Compound concentration 1000.0 nM
[36] = biological target: Tyrosine-protein kinase ZAP-70 (Homo sapiens) (UniProt P43403); conditions: Compound concentration 1000.0 nM
[37] = biological target: Phosphatidylinositol 4,5-bisphosphate 3-kinase catalytic subunit beta isoform (Homo sapiens) (UniProt P42338); conditions: Compound concentration 1000.0 nM
[38] = biological target: Non-receptor tyrosine-protein kinase TYK2 (Homo sapiens) (UniProt P29597); conditions: Compound concentration 1000.0 nM
[39] = biological target: Glycogen synthase kinase-3 beta (Homo sapiens) (UniProt P49841); conditions: Compound concentration 1000.0 nM
[40] = tested on: Tyrosine-protein kinase ABL1 (Homo sapiens), P00519 [Y253F]; conditions: Compound concentration 1000.0 nM
[41] = biological target: Cyclin-dependent kinase 16 (Homo sapiens) (UniProt Q00536); conditions: Compound concentration 1000.0 nM
[42] = biological target: Muscarinic acetylcholine receptor M2 (Homo sapiens) (UniProt P08172); conditions: Compound concentration 10.0 uM
[43] = biological target: Bone morphogenetic protein receptor type-2 (Homo sapiens) (UniProt Q13873); conditions: Compound concentration 1000.0 nM
[44] = biological target: Cyclin-dependent kinase 9 (Homo sapiens) (UniProt P50750); conditions: Compound concentration 1000.0 nM
[45] = biological target: Serine/threonine-protein kinase Nek2 (Homo sapiens) (UniProt P51955); conditions: Compound concentration 1000.0 nM
Chain of Serine/threonine-protein kinase Nek2 (Homo sapiens) (P51955 whole entry): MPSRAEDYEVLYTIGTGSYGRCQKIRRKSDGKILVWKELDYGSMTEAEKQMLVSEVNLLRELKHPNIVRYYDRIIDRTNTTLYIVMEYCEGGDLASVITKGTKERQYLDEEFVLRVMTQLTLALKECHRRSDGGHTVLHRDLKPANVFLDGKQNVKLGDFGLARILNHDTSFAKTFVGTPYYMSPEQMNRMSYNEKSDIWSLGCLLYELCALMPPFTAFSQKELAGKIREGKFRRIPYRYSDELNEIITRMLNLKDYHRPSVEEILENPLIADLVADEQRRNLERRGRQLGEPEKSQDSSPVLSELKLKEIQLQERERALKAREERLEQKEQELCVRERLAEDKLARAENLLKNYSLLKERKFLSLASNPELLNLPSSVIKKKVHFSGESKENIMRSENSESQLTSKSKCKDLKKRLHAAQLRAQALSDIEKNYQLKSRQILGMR

Chain of Receptor-interacting serine/threonine-protein kinase 2 (Homo sapiens) (O43353 whole entry): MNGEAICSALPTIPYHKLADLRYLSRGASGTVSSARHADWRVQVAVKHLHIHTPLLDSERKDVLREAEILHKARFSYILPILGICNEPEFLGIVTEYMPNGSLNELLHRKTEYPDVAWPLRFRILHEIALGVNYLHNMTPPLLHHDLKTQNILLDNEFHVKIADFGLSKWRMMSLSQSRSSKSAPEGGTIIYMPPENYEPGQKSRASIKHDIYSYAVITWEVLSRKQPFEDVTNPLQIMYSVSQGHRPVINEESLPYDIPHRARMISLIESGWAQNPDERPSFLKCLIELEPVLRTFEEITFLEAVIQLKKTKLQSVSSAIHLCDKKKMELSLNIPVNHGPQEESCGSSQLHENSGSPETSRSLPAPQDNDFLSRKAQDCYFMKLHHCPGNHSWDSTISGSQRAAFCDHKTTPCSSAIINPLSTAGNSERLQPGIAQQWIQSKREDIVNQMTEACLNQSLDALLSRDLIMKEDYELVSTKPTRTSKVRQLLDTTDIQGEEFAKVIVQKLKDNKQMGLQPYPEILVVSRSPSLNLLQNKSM
Chain of cGMP-dependent protein kinase 2 (Homo sapiens) (Q13237 whole entry): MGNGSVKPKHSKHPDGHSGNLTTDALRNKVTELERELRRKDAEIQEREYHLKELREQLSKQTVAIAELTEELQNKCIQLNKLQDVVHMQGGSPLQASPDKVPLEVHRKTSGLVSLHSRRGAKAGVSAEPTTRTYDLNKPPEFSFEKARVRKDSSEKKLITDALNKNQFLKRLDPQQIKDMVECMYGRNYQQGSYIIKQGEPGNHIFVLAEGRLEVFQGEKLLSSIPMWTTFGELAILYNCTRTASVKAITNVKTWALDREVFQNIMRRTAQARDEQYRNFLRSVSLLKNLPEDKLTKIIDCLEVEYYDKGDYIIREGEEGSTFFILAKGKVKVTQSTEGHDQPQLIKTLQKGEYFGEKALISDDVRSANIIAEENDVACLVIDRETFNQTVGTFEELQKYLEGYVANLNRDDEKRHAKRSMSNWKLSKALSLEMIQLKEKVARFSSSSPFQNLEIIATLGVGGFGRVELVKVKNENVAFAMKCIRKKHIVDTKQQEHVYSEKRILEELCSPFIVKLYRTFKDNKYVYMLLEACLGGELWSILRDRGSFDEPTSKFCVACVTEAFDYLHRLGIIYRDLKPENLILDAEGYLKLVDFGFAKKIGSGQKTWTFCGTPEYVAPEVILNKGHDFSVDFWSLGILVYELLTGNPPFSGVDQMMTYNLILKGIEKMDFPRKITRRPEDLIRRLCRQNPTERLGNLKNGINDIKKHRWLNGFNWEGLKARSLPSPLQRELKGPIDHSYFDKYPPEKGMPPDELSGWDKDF
Chain of Cyclin-dependent kinase 16 (Homo sapiens) (Q00536 whole entry): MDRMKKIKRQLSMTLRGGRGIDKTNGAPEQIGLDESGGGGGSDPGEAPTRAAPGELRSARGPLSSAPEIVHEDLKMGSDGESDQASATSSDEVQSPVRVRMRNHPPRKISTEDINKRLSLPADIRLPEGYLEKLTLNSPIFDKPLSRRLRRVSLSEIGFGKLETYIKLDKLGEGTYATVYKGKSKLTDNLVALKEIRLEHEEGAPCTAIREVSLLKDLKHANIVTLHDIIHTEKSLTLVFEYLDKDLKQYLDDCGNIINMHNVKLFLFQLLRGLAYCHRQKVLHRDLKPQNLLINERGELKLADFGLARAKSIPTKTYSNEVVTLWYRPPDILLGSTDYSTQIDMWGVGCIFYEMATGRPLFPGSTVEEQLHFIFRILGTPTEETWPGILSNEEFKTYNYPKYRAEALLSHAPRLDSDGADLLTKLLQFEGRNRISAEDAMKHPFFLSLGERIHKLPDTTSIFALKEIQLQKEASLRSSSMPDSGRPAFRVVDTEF
Chain of 5-hydroxytryptamine receptor 1E (Homo sapiens) (P28566 whole entry): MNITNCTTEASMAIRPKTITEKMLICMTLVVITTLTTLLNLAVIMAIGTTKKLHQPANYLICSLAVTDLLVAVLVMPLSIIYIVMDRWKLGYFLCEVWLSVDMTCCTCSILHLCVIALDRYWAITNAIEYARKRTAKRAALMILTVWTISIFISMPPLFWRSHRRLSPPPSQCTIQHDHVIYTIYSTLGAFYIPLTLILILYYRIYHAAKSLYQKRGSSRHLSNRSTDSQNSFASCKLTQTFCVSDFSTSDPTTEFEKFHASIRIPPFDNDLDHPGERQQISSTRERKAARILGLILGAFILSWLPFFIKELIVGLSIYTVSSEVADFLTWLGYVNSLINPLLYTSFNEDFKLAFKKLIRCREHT
Chain of Serine/threonine-protein kinase 25 (Homo sapiens) (O00506 whole entry, looked up): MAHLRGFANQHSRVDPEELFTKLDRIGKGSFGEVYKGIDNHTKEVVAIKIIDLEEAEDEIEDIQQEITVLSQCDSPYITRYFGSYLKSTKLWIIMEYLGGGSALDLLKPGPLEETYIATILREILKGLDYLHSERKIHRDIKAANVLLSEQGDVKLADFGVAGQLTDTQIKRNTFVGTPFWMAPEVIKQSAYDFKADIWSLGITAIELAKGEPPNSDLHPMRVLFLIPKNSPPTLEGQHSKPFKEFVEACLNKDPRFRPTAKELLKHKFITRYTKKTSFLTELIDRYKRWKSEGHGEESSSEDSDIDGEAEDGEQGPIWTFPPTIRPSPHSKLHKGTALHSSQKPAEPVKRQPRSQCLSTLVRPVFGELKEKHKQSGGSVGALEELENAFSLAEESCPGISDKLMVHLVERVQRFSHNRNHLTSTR
Chain of Mitogen-activated protein kinase 3 (Homo sapiens) (P27361 whole entry): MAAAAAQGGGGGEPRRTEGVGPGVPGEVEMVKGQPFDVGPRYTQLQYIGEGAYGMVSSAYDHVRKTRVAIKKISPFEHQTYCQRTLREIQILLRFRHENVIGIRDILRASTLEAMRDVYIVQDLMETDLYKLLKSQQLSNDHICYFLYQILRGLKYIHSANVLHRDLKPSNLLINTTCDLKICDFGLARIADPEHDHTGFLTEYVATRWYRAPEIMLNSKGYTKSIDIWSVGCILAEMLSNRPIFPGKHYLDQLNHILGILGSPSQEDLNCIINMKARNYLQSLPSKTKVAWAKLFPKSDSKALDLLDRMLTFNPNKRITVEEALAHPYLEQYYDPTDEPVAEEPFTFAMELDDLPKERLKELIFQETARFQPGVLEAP
Chain of Cyclin-dependent kinase 9 (Homo sapiens) (P50750 whole entry): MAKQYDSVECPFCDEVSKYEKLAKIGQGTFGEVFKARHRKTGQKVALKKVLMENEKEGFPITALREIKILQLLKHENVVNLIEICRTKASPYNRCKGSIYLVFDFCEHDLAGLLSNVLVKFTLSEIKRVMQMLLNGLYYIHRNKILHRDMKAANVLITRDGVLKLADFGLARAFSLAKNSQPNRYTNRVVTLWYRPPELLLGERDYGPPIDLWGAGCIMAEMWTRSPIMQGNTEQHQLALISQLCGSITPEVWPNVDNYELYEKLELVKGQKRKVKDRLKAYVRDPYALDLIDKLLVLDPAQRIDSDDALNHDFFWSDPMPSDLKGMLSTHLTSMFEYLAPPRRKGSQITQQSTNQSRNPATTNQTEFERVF
Chain of Phosphatidylinositol 4,5-bisphosphate 3-kinase catalytic subunit beta isoform (Homo sapiens) (P42338 whole entry, looked up, canonical isoform): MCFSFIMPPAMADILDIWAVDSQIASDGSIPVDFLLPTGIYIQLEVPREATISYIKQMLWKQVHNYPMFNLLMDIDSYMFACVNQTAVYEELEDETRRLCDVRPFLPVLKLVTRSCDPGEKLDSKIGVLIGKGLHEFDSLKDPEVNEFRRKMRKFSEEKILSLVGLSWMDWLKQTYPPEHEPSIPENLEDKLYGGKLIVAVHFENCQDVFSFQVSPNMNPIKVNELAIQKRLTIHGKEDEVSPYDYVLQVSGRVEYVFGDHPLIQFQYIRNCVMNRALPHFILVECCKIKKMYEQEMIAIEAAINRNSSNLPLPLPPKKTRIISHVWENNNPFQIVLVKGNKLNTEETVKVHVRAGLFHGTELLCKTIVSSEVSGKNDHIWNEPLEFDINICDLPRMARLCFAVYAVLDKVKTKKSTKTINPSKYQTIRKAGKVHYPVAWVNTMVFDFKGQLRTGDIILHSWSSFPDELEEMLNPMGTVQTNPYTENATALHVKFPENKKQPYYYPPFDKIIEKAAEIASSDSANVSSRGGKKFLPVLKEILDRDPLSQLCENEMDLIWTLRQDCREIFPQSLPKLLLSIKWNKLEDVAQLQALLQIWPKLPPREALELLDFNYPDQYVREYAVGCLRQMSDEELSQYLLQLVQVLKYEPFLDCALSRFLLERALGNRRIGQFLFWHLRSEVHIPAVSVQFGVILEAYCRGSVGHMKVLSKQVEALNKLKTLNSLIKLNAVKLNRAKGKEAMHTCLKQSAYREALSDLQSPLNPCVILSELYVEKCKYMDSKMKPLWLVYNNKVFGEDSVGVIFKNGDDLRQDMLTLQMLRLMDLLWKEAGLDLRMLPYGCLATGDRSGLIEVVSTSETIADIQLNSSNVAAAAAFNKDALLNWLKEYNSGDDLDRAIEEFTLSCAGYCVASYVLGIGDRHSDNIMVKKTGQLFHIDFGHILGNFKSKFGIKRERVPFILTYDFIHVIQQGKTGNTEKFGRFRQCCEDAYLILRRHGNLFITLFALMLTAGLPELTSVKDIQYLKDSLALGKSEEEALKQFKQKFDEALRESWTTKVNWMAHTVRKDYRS

COc1cccc(CNC(=O)c2nc3scc(COCc4ccc(C(=O)O)cc4)c3c(=O)[nH]2)c1 [T-26c]
inactive: residual activity [1] 74.2% | residual activity [2] 100% | residual activity [3] 56.5% | residual activity [4] 100% | residual activity [5] 72.2% | residual activity [6] 69.1% | residual activity [7] 83.6% | residual activity [8] 100% | residual activity [9] 74% | residual activity [10] 87.2% | residual activity [11] 100% | residual activity [12] 100% | residual activity [13] 88% | residual activity [14] 56.7% | residual activity [15] 69.2% | residual activity [16] 92.3% | inhibition [17] -0.179% | residual activity [18] 100% | residual activity [19] 50.1% | residual activity [20] 100% | residual activity [21] 86.6% | residual activity [22] 98% | residual activity [23] 72.5% | residual activity [24] 100% | residual activity [25] 54.2% | residual activity [26] 97% | residual activity [27] 100% | residual activity [28] 88.3% | residual activity [29] 79.4% | residual activity [30] 100% | residual activity [31] 98.5% | residual activity [32] 100% | residual activity [33] 90.7% | residual activity [34] 79.8% | residual activity [35] 76.7% | residual activity [36] 67.1% | residual activity [37] 54.8% | residual activity [38] 95% | residual activity [39] 62.6% | residual activity [40] 84.6% | residual activity [41] 91.9% | inhibition [42] -2.95% | residual activity [43] 71.8% | residual activity [44] 78.6% | residual activity [45] 100%
